Results as given in US12264158B2, “Protein kinase MKK4 inhibitors for promoting liver regeneration or reducing or preventing hepatocyte death” (HEPAREGENIX GMBH, priority 2018, dated 2025).

How the values were obtained:
Conditions in all cases: concentration of 100 nM
[1] = target: T1, MKK7 (Homo sapiens, UniProt O14733); test: KINOMEscan competition binding assay, selectivity against off-target MKK7
T1 construct: M1/R419; host or cells: HEK-293
T1 sequence (O14733 1-419): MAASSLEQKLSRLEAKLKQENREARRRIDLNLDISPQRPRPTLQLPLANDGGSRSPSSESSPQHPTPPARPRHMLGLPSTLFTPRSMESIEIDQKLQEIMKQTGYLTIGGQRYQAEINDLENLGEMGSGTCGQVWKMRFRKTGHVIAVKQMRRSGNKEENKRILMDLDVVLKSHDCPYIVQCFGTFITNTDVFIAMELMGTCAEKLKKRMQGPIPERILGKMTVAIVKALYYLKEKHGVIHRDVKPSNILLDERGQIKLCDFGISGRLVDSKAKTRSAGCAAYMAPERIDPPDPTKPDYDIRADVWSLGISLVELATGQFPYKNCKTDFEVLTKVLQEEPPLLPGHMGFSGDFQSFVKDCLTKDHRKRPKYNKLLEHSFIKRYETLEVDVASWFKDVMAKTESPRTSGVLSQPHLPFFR
Procedure: (§1) The assay was performed by combining three components: DNA-tagged kinase; immobilized ligand; and a test compound. The ability of the test compound to compete with the immobilized ligand was measured via quantitative PCR of the DNA tag. The technology is described in detail in Fabian, M. A. et al. A small molecule-kinase interaction map for clinical kinase inhibitors. Nat. […] M. W. et al. A quantitative analysis of kinase inhibitor selectivity, Nat.
(§2) For investigation of the affinity to MKK4, MKK7 and JNK1, the kinases were produced in HEK-293 cells and subsequently tagged with DNA for qPCR detection. […] The liganded beads were blocked with excess biotin and washed with blocking buffer (SEABLOCK™ (Pierce), 1% BSA, 0.05% TWEEN®20, 1 mM DTT) to remove unbound ligand and to reduce nonspecific binding. […] All reactions were performed in polystyrene 96-well plates in a final volume of 0.135 mL. […] The kinase concentration in the eluates was measured by qPCR.
(§3) The test compounds were provided as 10 mM stock solutions. The test solutions at indicated final concentrations were prepared at DiscoverX.

[2] = target: T2, MKK4 (Homo sapiens, UniProt P45985); test: KINOMEscan competition binding assay, MKK4 potency
T2 construct: S84/D399; host or cells: HEK-293
T2 sequence (P45985 84-399): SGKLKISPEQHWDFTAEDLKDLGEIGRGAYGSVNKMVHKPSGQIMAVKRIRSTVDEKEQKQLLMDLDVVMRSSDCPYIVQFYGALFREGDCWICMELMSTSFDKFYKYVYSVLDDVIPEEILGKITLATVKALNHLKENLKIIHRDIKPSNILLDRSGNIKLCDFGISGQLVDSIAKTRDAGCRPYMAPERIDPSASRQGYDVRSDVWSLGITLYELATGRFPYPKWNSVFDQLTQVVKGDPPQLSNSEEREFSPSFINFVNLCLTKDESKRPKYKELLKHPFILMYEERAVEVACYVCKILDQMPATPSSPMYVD
Procedure: as §1, §2, §3

[3] = target: BRaf (Homo sapiens, UniProt P15056); test: KINOMEscan competition binding assay, selectivity against off-target BRaf
Chain of BRaf (P15056 whole entry): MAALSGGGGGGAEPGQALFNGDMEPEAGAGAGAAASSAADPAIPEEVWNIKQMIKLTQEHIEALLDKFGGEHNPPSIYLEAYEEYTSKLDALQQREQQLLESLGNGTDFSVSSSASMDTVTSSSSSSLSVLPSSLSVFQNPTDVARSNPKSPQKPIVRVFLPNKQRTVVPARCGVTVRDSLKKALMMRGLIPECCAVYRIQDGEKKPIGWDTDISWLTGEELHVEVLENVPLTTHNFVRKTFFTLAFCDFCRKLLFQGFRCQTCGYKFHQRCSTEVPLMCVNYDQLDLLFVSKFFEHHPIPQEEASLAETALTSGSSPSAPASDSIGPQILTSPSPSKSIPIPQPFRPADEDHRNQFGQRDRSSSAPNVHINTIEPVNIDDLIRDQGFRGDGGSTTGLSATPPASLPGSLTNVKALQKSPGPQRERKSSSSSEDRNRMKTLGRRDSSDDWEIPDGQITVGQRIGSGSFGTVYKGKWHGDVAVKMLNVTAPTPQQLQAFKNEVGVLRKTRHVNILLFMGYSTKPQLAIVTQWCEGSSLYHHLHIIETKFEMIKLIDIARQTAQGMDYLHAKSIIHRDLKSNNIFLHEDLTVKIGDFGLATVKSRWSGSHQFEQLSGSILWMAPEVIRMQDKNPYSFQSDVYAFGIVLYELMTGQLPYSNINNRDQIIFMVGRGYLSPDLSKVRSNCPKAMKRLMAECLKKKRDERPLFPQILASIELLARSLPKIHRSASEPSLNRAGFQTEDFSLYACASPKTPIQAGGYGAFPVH
Procedure: as §1, §3

[4] = target: T3, JNK1 (Homo sapiens, UniProt P45983); test: KINOMEscan competition binding assay, selectivity against off-target JNK1
T3 construct: M1/Q384; host or cells: HEK-293
T3 sequence (P45983 1-384 isoform P45983-2): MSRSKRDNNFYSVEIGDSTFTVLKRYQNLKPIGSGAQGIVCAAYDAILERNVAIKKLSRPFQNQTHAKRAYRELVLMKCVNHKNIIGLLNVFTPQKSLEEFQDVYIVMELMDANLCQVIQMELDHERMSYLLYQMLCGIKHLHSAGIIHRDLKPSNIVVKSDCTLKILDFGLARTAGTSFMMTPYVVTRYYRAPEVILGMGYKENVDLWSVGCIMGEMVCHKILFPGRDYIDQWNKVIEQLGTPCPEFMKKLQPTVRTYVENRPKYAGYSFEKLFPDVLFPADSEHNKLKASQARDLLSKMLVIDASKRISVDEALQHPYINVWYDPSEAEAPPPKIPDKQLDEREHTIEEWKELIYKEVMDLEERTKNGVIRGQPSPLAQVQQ
Procedure: as §1, §2, §3

Row | Structure (SMILES) | Selectivity vs. MKK7, ratio PoC(MKK7)/PoC(MKK4) [1] | MKK4, residual percent of control binding (PoC) [2] | Selectivity vs. BRaf, ratio PoC(BRaf)/PoC(MKK4) [3] | Selectivity vs. JNK1, ratio PoC(JNK1)/PoC(MKK4) [4]
1 | CCCS(=O)(=O)Nc1ccc(F)c(C(=O)c2n[nH]c3ncc(-c4cccc(Cl)c4)cc23)c1F [Example 7, N-(3-(5-(3-chlorophenyl)-1H-pyrazolo[3,4-b]pyridine-3-carbonyl)-2,4-difluorophenyl)-propane-1-sulfonamide] | O (PoC(MKK7)/PoC(MKK4) < 3) | O (PoC ≥ 30) | O (PoC(BRaf)/PoC(MKK4) < 3) | O (PoC(JNK1)/PoC(MKK4) < 3)
2 | CCCS(=O)(=O)Nc1ccc(F)c(C(=O)c2n[nH]c3ncc(-c4ccc(OC)cc4)cc23)c1F [Example 6, N-(2,4-difluoro-3-(5-(4-methoxyphenyl)-1H-pyrazo-lo[3,4-b]pyridine-3-carbonyl)-phenyl)propane-1-sulfon-amide] | ++ (30 > PoC(MKK7)/PoC(MKK4) ≥ 10) | ++ (1 ≤ PoC < 10) | O (PoC(BRaf)/PoC(MKK4) < 3) | ++ (30 > PoC(JNK1)/PoC(MKK4) ≥ 10)
3 | CCCS(=O)(=O)Nc1ccc(F)c(C(=O)c2n[nH]c3ncc(-c4ccc(C)cc4)cc23)c1F [Example 20, N-(2,4-difluoro-3-(5-p-tolyl-1H-pyrazolo[3,4-b]pyridine-3-carbonyl)phenyl)propane-1-sulfonamide] | ++ (30 > PoC(MKK7)/PoC(MKK4) ≥ 10) | ++ (1 ≤ PoC < 10) | O (PoC(BRaf)/PoC(MKK4) < 3) | ++ (30 > PoC(JNK1)/PoC(MKK4) ≥ 10)
4 | CCCS(=O)(=O)Nc1ccc(F)c(C(=O)c2n[nH]c3ncc(-c4ccc(C(C)(C)C)cc4)cc23)c1F [Example 10, N-(3-(5-(4-tert-butylphenyl)-1H-pyrazolo[3,4-b]pyridine-3-carbonyl)-2,4-difluoro-phenyl)propane-1-sulfon-amide] | O (PoC(MKK7)/PoC(MKK4) < 3) | O (PoC ≥ 30) | O (PoC(BRaf)/PoC(MKK4) < 3) | O (PoC(JNK1)/PoC(MKK4) < 3)
5 | CCCS(=O)(=O)Nc1ccc(F)c(C(=O)c2n[nH]c3ncc(-c4cccc(N(C)C)c4)cc23)c1F [Example 28, N-(3-(5-(3-(dimethyl-amino)phenyl)-1H-pyrazo-lo[3,4-b]pyridine-3-carbonyl)-2,4-difluoro-phenyl)propane-1-sulfonamide] | + (10 > PoC(MKK7)/PoC(MKK4) ≥ 3) | + (10 ≤ PoC < 30) | O (PoC(BRaf)/PoC(MKK4) < 3) | + (10 > PoC(JNK1)/PoC(MKK4) ≥ 3)
6 | CCCS(=O)(=O)Nc1ccc(F)c(C(=O)c2n[nH]c3ncc(-c4cccc(C)c4)cc23)c1F [Example 29, N-(2,4-difluoro-3-(5-m-tolyl-1H-pyrazolo[3,4-b]pyridine-3-carbonyl)phenyl)propane-1-sulfonamide] | + (10 > PoC(MKK7)/PoC(MKK4) ≥ 3) | + (10 ≤ PoC < 30) | O (PoC(BRaf)/PoC(MKK4) < 3) | + (10 > PoC(JNK1)/PoC(MKK4) ≥ 3)
7 | CCCS(=O)(=O)Nc1ccc(F)c(Cc2n[nH]c3ncc(-c4ccc(Cl)cc4)cc23)c1F [Example 50, N-(3-((5-(4-chlorophenyl)-1H-pyrazolo[3,4-b]pyridin-3-yl)methyl)-2,4-difluorophenyl)propane-1-sulfonamide] | O (PoC(MKK7)/PoC(MKK4) < 3) | O (PoC ≥ 30) | O (PoC(BRaf)/PoC(MKK4) < 3) | O (PoC(JNK1)/PoC(MKK4) < 3)
8 | CCCS(=O)(=O)Nc1ccc(F)c(C(=O)c2n[nH]c3ncc(-c4ccc(Cl)cc4Cl)cc23)c1F [Example 35, N-(3-(5-(2,4-dichlorophenyl)-1H-pyrazolo[3,4-b]pyridine-3-carbonyl)-2,4-difluoro-phenyl)propane-1-sulfonamide] | + (10 > PoC(MKK7)/PoC(MKK4) ≥ 3) | + (10 ≤ PoC < 30) | + (10 > PoC(BRaf)/PoC(MKK4) ≥ 3) | + (10 > PoC(JNK1)/PoC(MKK4) ≥ 3)
9 | CCCS(=O)(=O)Nc1ccc(F)c(C(=O)c2n[nH]c3ncc(-c4ccc(Cl)c(Cl)c4)cc23)c1F [Example 33, N-(3-(5-(3,4-dichloro-phenyl)-1H-pyrazolo[3,4-b]pyridine-3-carbonyl)-2,4-difluoro-phenyl)-propane-1-sulfon-amide] | O (PoC(MKK7)/PoC(MKK4) < 3) | O (PoC ≥ 30) | O (PoC(BRaf)/PoC(MKK4) < 3) | O (PoC(JNK1)/PoC(MKK4) < 3)
10 | CCCS(=O)(=O)Nc1ccc(F)c(C(=O)c2n[nH]c3ncc(-c4ccc(C)c(C)c4)cc23)c1F [Example 12, N-(3-(5-(3,4-dimethyl-phenyl)-1H-pyrazolo[3,4-b]pyridine-3-carbonyl)-2,4-difluorophenyl)-propane-1-sulfonamide] | + (10 > PoC(MKK7)/PoC(MKK4) ≥ 3) | + (10 ≤ PoC < 30) | O (PoC(BRaf)/PoC(MKK4) < 3) | + (10 > PoC(JNK1)/PoC(MKK4) ≥ 3)
11 | CCCS(=O)(=O)Nc1ccc(F)c(C(=O)c2n[nH]c3ncc(-c4cc(Cl)cc(Cl)c4)cc23)c1F [Example 22, N-(3-(5-(3,5-dichloro-phenyl)-1H-pyrazolo[3,4-b]pyridine-3-carbonyl)-2,4-difluoro-phenyl)propane-1-sulfon-amide] | O (PoC(MKK7)/PoC(MKK4) < 3) | O (PoC ≥ 30) | O (PoC(BRaf)/PoC(MKK4) < 3) | O (PoC(JNK1)/PoC(MKK4) < 3)
12 | CCCS(=O)(=O)Nc1ccc(F)c(C(=O)c2n[nH]c3ncc(-c4ccc(C(C)C)cc4)cc23)c1F [Example 11, N-(2,4-difluoro-3-(5-(4-isopropylphenyl)-1H-pyrazo-lo[3,4-b]pyridine-3-carbonyl)phenyl)propane-1-sulfon-amide] | + (10 > PoC(MKK7)/PoC(MKK4) ≥ 3) | + (10 ≤ PoC < 30) | + (10 > PoC(BRaf)/PoC(MKK4) ≥ 3) | + (10 > PoC(JNK1)/PoC(MKK4) ≥ 3)
13 | CCCS(=O)(=O)Nc1ccc(F)c(C(=O)c2n[nH]c3ncc(-c4ccc(C(F)(F)F)cc4)cc23)c1F [Example 34, N-(2,4-difluoro-3-(5-(4-(trifluoromethyl)phenyl)-1H-pyrazolo[3,4-b]pyridine-3-carbonyl)-phenyl)propane-1-sulfonamide] | + (10 > PoC(MKK7)/PoC(MKK4) ≥ 3) | + (10 ≤ PoC < 30) | O (PoC(BRaf)/PoC(MKK4) < 3) | O (PoC(JNK1)/PoC(MKK4) < 3)
14 | CCCS(=O)(=O)Nc1ccc(F)c(C(=O)c2n[nH]c3ncc(-c4cccc(F)c4)cc23)c1F [Example 16, N-(2,4-difluoro-3-(5-(3-fluorophenyl)-1H-pyrazo-lo[3,4-b]pyridine-3-carbonyl)-phenyl)propane-1-sulfon-amide] | ++ (30 > PoC(MKK7)/PoC(MKK4) ≥ 10) | ++ (1 ≤ PoC < 10) | O (PoC(BRaf)/PoC(MKK4) < 3) | ++ (30 > PoC(JNK1)/PoC(MKK4) ≥ 10)
15 | CCCS(=O)(=O)Nc1ccc(F)c(S(=O)(=O)c2n[nH]c3ncc(-c4ccc(Cl)cc4)cc23)c1F [Example 48, N-(3-((5-(4-chlorophenyl)-1H-pyrazolo[3,4-b]pyridin-3-yl)sulfonyl)-2,4-difluorophenyl)propane-1-sulfonamide] | O (PoC(MKK7)/PoC(MKK4) < 3) | O (PoC ≥ 30) | O (PoC(BRaf)/PoC(MKK4) < 3) | O (PoC(JNK1)/PoC(MKK4) < 3)
